Where only a bound is given, the exact number is not on record here.

The target of the experiment is T1, Dual specificity protein phosphatase 1 (Homo sapiens, UniProt P28562).
T1 sequence (P28562 whole entry): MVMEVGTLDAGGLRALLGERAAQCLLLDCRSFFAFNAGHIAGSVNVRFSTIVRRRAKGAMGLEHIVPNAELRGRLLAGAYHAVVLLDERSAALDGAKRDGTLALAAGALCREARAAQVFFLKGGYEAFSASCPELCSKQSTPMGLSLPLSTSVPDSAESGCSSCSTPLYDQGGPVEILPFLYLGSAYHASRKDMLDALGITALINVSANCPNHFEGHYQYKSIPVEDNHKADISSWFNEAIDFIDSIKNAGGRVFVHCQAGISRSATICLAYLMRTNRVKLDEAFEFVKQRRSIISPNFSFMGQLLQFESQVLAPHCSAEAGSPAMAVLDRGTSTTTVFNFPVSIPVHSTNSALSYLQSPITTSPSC
The experiment is described as follows: MKP-1 phosphatase inhibitors, SAR follow-up, biochemical, in vitro (AID 579). The settings on record: pH 7; 23 °C.

Take `Nc1cc(=O)[nH]c(=O)n1CC1CC1`: the IC50 is more than 50 µM. The result for `NC(=O)NCC1CC1` [1-(cyclopropylmethyl)urea] reads more than 50 µM.

For the molecule `Oc1cc(C(F)(F)F)nc2c(C(F)(F)F)cccc12` [2,8-bis(trifluoromethyl)-1H-quinolin-4-one], the IC50 is more than 50 µM. Take `Cn1c(N)c(C(=O)COC(=O)c2cc(C(F)(F)F)nc3c(C(F)(F)F)cccc23)c(=O)n(C)c1=O` [2,8-bis(trifluoromethyl)-4-quinolinecarboxylic acid [2-(4-amino-1,3-dimethyl-2,6-dioxo-5-pyrimidinyl)-2-oxoethyl] ester]: the IC50 is more than 50 µM. Take `Cn1c(=O)c(C(=O)COC(=O)c2cc(C(F)(F)F)nc3c(C(F)(F)F)cccc23)c(N)n(Cc2ccccc2)c1=O` [2,8-bis(trifluoromethyl)-4-quinolinecarboxylic acid [2-[4-amino-1-methyl-2,6-dioxo-3-(phenylmethyl)-5-pyrimidinyl]-2-oxoethyl] ester]: the IC50 is more than 50 µM.

With `CC(C)Cn1c(N)c(C(=O)COC(=O)c2cc(C(F)(F)F)nc3c(C(F)(F)F)cccc23)c(=O)n(C)c1=O` [2,8-bis(trifluoromethyl)-4-quinolinecarboxylic acid [2-[4-amino-1-methyl-3-(2-methylpropyl)-2,6-dioxo-5-pyrimidinyl]-2-oxoethyl] ester], the IC50 is more than 50 µM.

`Cn1c(=O)c(C(=O)COC(=O)c2cc(C(F)(F)F)nc3c(C(F)(F)F)cccc23)c(N)n(CC2CC2)c1=O` [2,8-bis(trifluoromethyl)-4-quinolinecarboxylic acid [2-[6-amino-1-(cyclopropylmethyl)-3-methyl-2,4-dioxo-5-pyrimidinyl]-2-oxoethyl] ester] registered an IC50 of more than 50 µM. The result for `Cn1c(N)c(C(=O)COC(=O)c2cc(C(F)(F)F)nc3c(C(F)(F)F)cccc23)c(=O)n(Cc2ccccc2)c1=O` [2,8-bis(trifluoromethyl)-4-quinolinecarboxylic acid [2-[6-amino-1-methyl-2,4-dioxo-3-(phenylmethyl)-5-pyrimidinyl]-2-oxoethyl] ester] reads more than 50 µM. As for `O=C(O)c1cc(C(F)(F)F)nc2c(C(F)(F)F)cccc12` [2,8-bis(trifluoromethyl)-4-quinolinecarboxylic acid], the IC50 was more than 50 µM. In turn, `Cn1c(N)c(C(=O)COC(=O)c2cc(-c3ccco3)nc3ccccc23)c(=O)n(C)c1=O` [2-(2-furanyl)-4-quinolinecarboxylic acid [2-(4-amino-1,3-dimethyl-2,6-dioxo-5-pyrimidinyl)-2-oxoethyl] ester] displayed an IC50 of 20.6 µM.

`CC(C)Cn1c(N)c(C(=O)COC(=O)c2cc(-c3ccco3)nc3ccccc23)c(=O)n(C)c1=O` [2-(2-furanyl)-4-quinolinecarboxylic acid [2-[4-amino-1-methyl-3-(2-methylpropyl)-2,6-dioxo-5-pyrimidinyl]-2-oxoethyl] ester] had an IC50 of 50 µM. `Cn1c(=O)c(C(=O)COC(=O)c2cc(-c3ccco3)nc3ccccc23)c(N)n(CC2CC2)c1=O` [2-(2-furanyl)-4-quinolinecarboxylic acid [2-[6-amino-1-(cyclopropylmethyl)-3-methyl-2,4-dioxo-5-pyrimidinyl]-2-oxoethyl] ester] showed an IC50 of 24.6 µM. As for `Cn1c(N)c(C(=O)COC(=O)c2cc(-c3ccco3)nc3ccccc23)c(=O)n(Cc2ccccc2)c1=O` [2-(2-furanyl)-4-quinolinecarboxylic acid [2-[6-amino-1-methyl-2,4-dioxo-3-(phenylmethyl)-5-pyrimidinyl]-2-oxoethyl] ester], half-maximal inhibition (IC50) was put at 16.9 µM. The result for `O=C(O)c1cc(-c2ccco2)nc2ccccc12` [2-(2-furanyl)-4-quinolinecarboxylic acid] reads more than 50 µM; that for `Cn1c(N)c(C(=O)COC(=O)c2cc(C(F)(F)F)nc3ccccc23)c(=O)n(C)c1=O` [2-(trifluoromethyl)-4-quinolinecarboxylic acid [2-(4-amino-1,3-dimethyl-2,6-dioxo-5-pyrimidinyl)-2-oxoethyl] ester], more than 50 µM. The result for `Cn1c(=O)c(C(=O)COC(=O)c2cc(C(F)(F)F)nc3ccccc23)c(N)n(Cc2ccccc2)c1=O` [2-(trifluoromethyl)-4-quinolinecarboxylic acid [2-[4-amino-1-methyl-2,6-dioxo-3-(phenylmethyl)-5-pyrimidinyl]-2-oxoethyl] ester] reads more than 50 µM; that for `CC(C)Cn1c(N)c(C(=O)COC(=O)c2cc(C(F)(F)F)nc3ccccc23)c(=O)n(C)c1=O` [2-(trifluoromethyl)-4-quinolinecarboxylic acid [2-[4-amino-1-methyl-3-(2-methylpropyl)-2,6-dioxo-5-pyrimidinyl]-2-oxoethyl] ester], more than 50 µM.

As for `Cn1c(N)c(C(=O)COC(=O)c2cc(C(F)(F)F)nc3ccccc23)c(=O)n(Cc2ccccc2)c1=O` [2-(trifluoromethyl)-4-quinolinecarboxylic acid [2-[6-amino-1-methyl-2,4-dioxo-3-(phenylmethyl)-5-pyrimidinyl]-2-oxoethyl] ester], the IC50 was more than 50 µM. In turn, `O=C(O)c1cc(C(F)(F)F)nc2ccccc12` [2-(trifluoromethyl)-4-quinolinecarboxylic acid] showed an IC50 of more than 50 µM. The result for `N#CCC(=O)NC(=O)NCC1CC1` [2-cyano-N-(cyclopropylmethylcarbamoyl)acetamide] reads more than 50 µM; that for `Cn1c(N)c(C(=O)COC(=O)c2cc(C3CC3)nc3ccccc23)c(=O)n(C)c1=O` [2-cyclopropyl-4-quinolinecarboxylic acid [2-(4-amino-1,3-dimethyl-2,6-dioxo-5-pyrimidinyl)-2-oxoethyl] ester], more than 50 µM. For `Cn1c(=O)c(C(=O)COC(=O)c2cc(C3CC3)nc3ccccc23)c(N)n(Cc2ccccc2)c1=O` [2-cyclopropyl-4-quinolinecarboxylic acid [2-[4-amino-1-methyl-2,6-dioxo-3-(phenylmethyl)-5-pyrimidinyl]-2-oxoethyl] ester], the IC50 is more than 50 µM. The result for `CC(C)Cn1c(N)c(C(=O)COC(=O)c2cc(C3CC3)nc3ccccc23)c(=O)n(C)c1=O` [2-cyclopropyl-4-quinolinecarboxylic acid [2-[4-amino-1-methyl-3-(2-methylpropyl)-2,6-dioxo-5-pyrimidinyl]-2-oxoethyl] ester] reads more than 50 µM; that for `Cn1c(N)c(C(=O)COC(=O)c2cc(C3CC3)nc3ccccc23)c(=O)n(Cc2ccccc2)c1=O` [2-cyclopropyl-4-quinolinecarboxylic acid [2-[6-amino-1-methyl-2,4-dioxo-3-(phenylmethyl)-5-pyrimidinyl]-2-oxoethyl] ester], 28.9 µM. The result for `O=C(O)c1cc(C2CC2)nc2ccccc12` [2-cyclopropyl-4-quinolinecarboxylic acid] reads more than 50 µM. Consider `Cn1c(N)c(C(=O)COC(=O)c2cc(-c3ccccc3)nc3ccccc23)c(=O)n(C)c1=O` [2-phenyl-4-quinolinecarboxylic acid [2-(4-amino-1,3-dimethyl-2,6-dioxo-5-pyrimidinyl)-2-oxoethyl] ester], for which the IC50 is more than 50 µM.

With `Cn1c(=O)c(C(=O)COC(=O)c2cc(-c3ccccc3)nc3ccccc23)c(N)n(Cc2ccccc2)c1=O` [2-phenyl-4-quinolinecarboxylic acid [2-[4-amino-1-methyl-2,6-dioxo-3-(phenylmethyl)-5-pyrimidinyl]-2-oxoethyl] ester], the 50% inhibitory concentration (IC50) was found to be 50 µM. The result for `CC(C)Cn1c(N)c(C(=O)COC(=O)c2cc(-c3ccccc3)nc3ccccc23)c(=O)n(C)c1=O` [2-phenyl-4-quinolinecarboxylic acid [2-[4-amino-1-methyl-3-(2-methylpropyl)-2,6-dioxo-5-pyrimidinyl]-2-oxoethyl] ester] reads more than 50 µM; that for `Cn1c(N)c(C(=O)COC(=O)c2cc(-c3ccccc3)nc3ccccc23)c(=O)n(Cc2ccccc2)c1=O` [2-phenyl-4-quinolinecarboxylic acid [2-[6-amino-1-methyl-2,4-dioxo-3-(phenylmethyl)-5-pyrimidinyl]-2-oxoethyl] ester], more than 50 µM.

`FC(F)(F)c1cc(Br)c2cccc(C(F)(F)F)c2n1` [4-bromanyl-2,8-bis(trifluoromethyl)quinoline]: the IC50 is more than 50 µM.

`Cn1c(N)c(C(=O)COC(=O)c2ccnc3ccccc23)c(=O)n(C)c1=O` [4-quinolinecarboxylic acid [2-(4-amino-1,3-dimethyl-2,6-dioxo-5-pyrimidinyl)-2-oxoethyl] ester]: the IC50 is more than 50 µM. The result for `Cn1c(=O)cc(N)n(Cc2ccccc2)c1=O` [6-amino-1-benzyl-3-methyl-pyrimidine-2,4-quinone] reads more than 50 µM.

The molecule `Cn1c(=O)c(C(=O)CCl)c(N)n(Cc2ccccc2)c1=O` [6-amino-1-benzyl-5-(2-chloroacetyl)-3-methyl-pyrimidine-2,4-quinone] had an IC50 of more than 50 µM. The result for `Nc1cc(=O)[nH]c(=O)n1Cc1ccccc1` [6-amino-1-benzylpyrimidine-2,4-dione] reads more than 50 µM; that for `Cn1c(N)cc(=O)n(Cc2ccccc2)c1=O` [6-amino-1-methyl-3-(phenylmethyl)pyrimidine-2,4-dione], more than 50 µM. Consider `Cn1c(N)c(C(=O)CCl)c(=O)n(Cc2ccccc2)c1=O` [6-amino-3-benzyl-5-(2-chloroacetyl)-1-methyl-pyrimidine-2,4-quinone], for which the IC50 was more than 50 µM. The result for `Cn1c(N)c(C(=O)CCl)c(=O)n(C)c1=O` [6-amino-5-(2-chloro-1-oxoethyl)-1,3-dimethylpyrimidine-2,4-dione] reads more than 50 µM. The result for `Cn1c(=O)c(C(=O)CCl)c(N)n(CC2CC2)c1=O` [6-amino-5-(2-chloro-1-oxoethyl)-1-(cyclopropylmethyl)-3-methylpyrimidine-2,4-dione] reads more than 50 µM.

As a reminder, the IC50 is the point on the concentration scale where inhibition reaches its midpoint. Low values mean inhibition by little substance, high ones a need for much substance.

Values taken from BindingDB's records for doi:10.7270/Q29G5K5D (Cc_Pmlsc, 2007).
